# Test results taken from paper PMC5563081, “Modulating Protein-Protein Interactions of the Mitotic Polo-like Kinases to Target Mutant KRAS” (Cell Chemical Biology, 2017).
# Like-named read-outs stand apart in the source and are kept apart here.
# T1: NanoLuc-PLK4 fusion protein (Homo sapiens, UniProt O00444)
# T1 construct: NanoLuc fused to the N-termini of full-length human PLK1, PLK2, PLK3, PLK4 or p38α MAPK; expressed in transfected cells; host or cells: HeLa, transient, digitonin-permeabilised
# T1 sequence (O00444 1-970): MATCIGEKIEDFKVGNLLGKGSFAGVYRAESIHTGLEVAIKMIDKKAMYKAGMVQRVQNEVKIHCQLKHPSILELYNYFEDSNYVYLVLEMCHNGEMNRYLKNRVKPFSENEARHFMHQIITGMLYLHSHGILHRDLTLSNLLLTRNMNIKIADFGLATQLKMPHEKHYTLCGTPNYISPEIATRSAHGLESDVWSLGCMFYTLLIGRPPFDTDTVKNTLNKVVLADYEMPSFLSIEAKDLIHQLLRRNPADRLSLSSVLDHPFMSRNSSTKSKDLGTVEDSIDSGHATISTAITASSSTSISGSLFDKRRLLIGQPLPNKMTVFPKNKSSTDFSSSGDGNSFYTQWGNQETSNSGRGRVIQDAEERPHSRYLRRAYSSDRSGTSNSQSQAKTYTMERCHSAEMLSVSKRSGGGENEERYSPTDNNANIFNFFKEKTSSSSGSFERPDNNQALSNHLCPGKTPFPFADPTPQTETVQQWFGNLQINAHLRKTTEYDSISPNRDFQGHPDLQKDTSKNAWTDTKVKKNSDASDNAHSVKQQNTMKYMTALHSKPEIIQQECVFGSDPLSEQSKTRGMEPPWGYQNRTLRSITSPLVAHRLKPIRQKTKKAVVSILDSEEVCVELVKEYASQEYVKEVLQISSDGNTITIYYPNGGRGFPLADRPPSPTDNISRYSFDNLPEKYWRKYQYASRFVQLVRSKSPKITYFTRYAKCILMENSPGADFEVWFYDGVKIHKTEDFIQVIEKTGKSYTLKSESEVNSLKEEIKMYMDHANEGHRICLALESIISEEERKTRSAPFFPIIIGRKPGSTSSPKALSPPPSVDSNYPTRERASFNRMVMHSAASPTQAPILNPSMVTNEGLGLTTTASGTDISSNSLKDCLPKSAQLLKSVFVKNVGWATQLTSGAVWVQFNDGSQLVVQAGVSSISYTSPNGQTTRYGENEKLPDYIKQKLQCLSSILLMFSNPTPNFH
# How the values were obtained:
# [1] = tested on: HCT116 BI 2536-Res. Clones; test: Viability of BI 2536-resistant HCT116 clones; format: cell-based, human; details: Homo sapiens, HCT-116; BI2536-Res. (Mean), 72 h; read-out: GI50
# Procedure: (§1) Viability is represented as percentage survival normalised to DMSO control. […] PCR reactions were carried out using Amplitaq Gold polymerase (Applied Biosystems N8080241) with a 25-cycle programme. […] Prepared samples were submitted for next generation sequencing using MiSeq Nano run with Nextera XT library preparation. Sequencing and subsequent bioinformatics were performed by Cambridge Genomic Services (University Of Cambridge).
# [2] = tested on: HCT116 KRAS G13D cells; test: Development of drug resistance under continuous treatment; format: cell-based, human; details: continuous treatment at 5x GI50
# Procedure: HCT116 wild-type cells (Horizon Discovery Ltd.) cultured in McCoy's 5A (Life Technologies #26600) medium supplemented with 10% Foetal Calf Serum (Life Technologies #10270) were treated on three occasions with titrations of the PLK1 ATP-competitive inhibitor BI 2536 (Selleckchem #S1109) or Poloppin in order to determine the 2.5x GI50, 3x GI50 and 5x GI50 values for each compound required to initiate the development of resistance. Cells were subsequently treated with 2.5x GI50, 3x GI50 and 5x GI50 concentrations of either compound, changing media and compound every three to four days until resistant colonies emerged or no viable cells remained. Single cell clones were isolated from cells resistant to 5x GI50 BI 2536. Equivalent experiments using 3x GI50 or 2.5x GI50 doses of Poloppin or BI2536 yielded identical results (data not shown). BI 2536-resistant clones (HCT116 BI 2536-Res. Clones) were treated with BI2536 or Poloppin, alongside drug-sensitive parental HCT116 cells (HCT116 wt), and viability was assessed after 72 h. Viability is represented as percentage survival normalised to DMSO control. […]
# [3] = tested on: HCT116 wt; test: Viability of drug-sensitive parental HCT116 cells; format: cell-based; details: Homo sapiens, HCT-116, 72 h
# Procedure: as §1
# [4] = tested on: Panc-1; test: Cell viability (SRB), Panc-1; format: cell-based, human; details: Panc-1, c-MET inhibitor alone, SRB 72 h, Figure S5C, read-out: EC50, % survival
# Procedure: SW48 Parental, SW48 G12D, Panc-1, HPAF-II, Panc 02.03 and Panc 05.04 cell lines were seeded overnight at 5000 cells per well in a 96 well plate in recommended media (ATCC). Compounds were added the following day and viability was measured at 72h using the sulforhodamine B (SRB) colorimetric assay as follows. Cells were fixed by replacing media with 1% v/v Trichloroacetic Acid (TCA) (Sigma-Aldrich) at 4°C and incubated for 1h also at 4°C. Wells were washed thoroughly with copious amounts of deionised water before staining with Sulforhodamine B (SRB) (Sigma-Aldrich) solution (0.057% w/v in 1% v/v Acetic Acid (VWR)) for 30 min. Stain was aspirated and wells washed with several changes of 1% v/v Acetic Acid until unbound stain was removed, before air-drying. Bound stain was solubilized with 100μl / well 10mM Tris (pH 8.0) (Trizma Base (121.1) Sigma-Aldrich) with agitation for 10 min. Fluorescence intensity was recorded at Ex540nm / Em590nm using a BMG Pherastar Plus plate reader ([Vichai and Kirtikara, 2006]).
# Pancreatic organoids were extracted and cultured as detailed above ([Boj et al., 2015]). In brief, pancreatic organoids were seeded at 600 cells per well in a 96 well plate and allowed to grow for 7 days with media replenishment on the 3rd day. Full-grown organoids were then treated with compounds for 72h and viability determined using CellTitre Glo 3D assay (Promega). For viability assays with c-MET siRNA, cells were reverse transfected in a 6 cm dish using Dharmafect 1 (GE Dharmacon) per manufacturer’s instructions. On the following day, cells were trypsinised and plated onto 96 well plates or 6 well plates. The 96 well plates were treated with a dose range of compounds or DMSO, and viability was determined via SRB colorimetric assay. Cells in the 6 well plates were collected at the end of experiment to corroborate knockdown of c-MET by Western blotting.
# Cells were reverse-transfected with 50nM (SW48 parental, SW48 KRAS G12D and Panc-1) or 25nM (HeLa Flp-In T-REx parental cells) siRNA using Dharmafect (GE Dharmacon) as manufacturer’s recommendations. Where transfected cells were subsequently treated with compounds, the cells were allowed to settle overnight and then treated with compound at the indicated concentration the following day. Viability was assessed after 72 hrs, with the SRB colorimetric assay. Knockdown efficiencies were determined by Western blot or RT-qPCR. Oligos against the following target sequences were used. c-MET (Qiagen): […], […], […]. PLK1 (Qiagen): […]. PLK2 (SMARTpool; Dharmacon): ACACAGAAGGAGAACGAUA, CAUCAAUGAGGAUAGGAUA, CUGCCUAGUGUUACUGAUA, ACAAAGUCUACGCCGCAAA. PLK3 (SMARTpool; Dharmacon): GCGAGAAGAUCCUAAAUGA, GCAAGUGGGUUGACUACUC, GCACAUCCGUUGGCCAUCA, GACCUCAAGUUGGGAAAUU. PLK4 (Qiagen): […].
# [5] = target: T2, NanoLuc-PLK1 fusion protein (Homo sapiens, UniProt P53350); test: NanoLuc thermal shift assay; format: cell-based; details: compound at 100 μM
# T2 construct: NanoLuc fused to the N-termini of full-length human PLK1, PLK2, PLK3, PLK4 or p38α MAPK; expressed in transfected cells; host or cells: HeLa, transient, digitonin-permeabilised
# T2 sequence (P53350 whole entry, the tested form may be a part): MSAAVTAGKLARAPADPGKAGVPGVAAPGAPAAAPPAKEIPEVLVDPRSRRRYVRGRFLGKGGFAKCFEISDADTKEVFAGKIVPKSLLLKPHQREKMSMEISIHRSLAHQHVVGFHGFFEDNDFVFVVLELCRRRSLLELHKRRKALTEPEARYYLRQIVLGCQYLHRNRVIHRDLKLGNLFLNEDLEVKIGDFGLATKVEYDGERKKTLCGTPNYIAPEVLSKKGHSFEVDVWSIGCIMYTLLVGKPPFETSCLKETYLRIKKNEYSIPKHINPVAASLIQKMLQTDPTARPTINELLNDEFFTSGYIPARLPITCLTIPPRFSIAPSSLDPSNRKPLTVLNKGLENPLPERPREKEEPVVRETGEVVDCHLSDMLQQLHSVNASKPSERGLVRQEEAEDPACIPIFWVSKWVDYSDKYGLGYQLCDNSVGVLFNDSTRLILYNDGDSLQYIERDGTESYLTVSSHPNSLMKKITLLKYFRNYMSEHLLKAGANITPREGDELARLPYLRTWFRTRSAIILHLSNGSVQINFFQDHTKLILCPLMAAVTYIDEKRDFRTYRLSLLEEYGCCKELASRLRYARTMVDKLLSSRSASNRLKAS
# Procedure: (§2) HeLa cells were transfected with plasmids encoding NanoLuc fused to the N-termini of full-length human PLK1, PLK2, PLK3, PLK4 or p38α MAPK. Twenty-four h after transfection, the thermal stability of the fusion proteins was tested using a modified version of the assay protocol supplied by Promega. Briefly, cells were harvested by tyrpsinisation and centrifugation, counted, and resuspended to 200,000 cells/ml in 3mls of serum-free OptiMEM media. Cells were then permeabilised using with 50ug/ml digitonin in DMSO for 5 min and incubated with test compounds at 100uM, plus protease inhibitor cocktail (Promega G6521), in a final concentration of 5% DMSO for 1 h at 37°C. After incubation, 100 μl/well of cells were aliquoted into a 96-well, thin-walled PCR plate and then heated for 3 minutes using a pre-warmed MJ Tetrad DNA Engine set to run a temperature gradient of 42 to 66°C. The plates were then cooled to room temperature for 10 min, and then 80μl of each sample was transferred to a white-walled 96-well Nunc plate before NanoBRET™ NanoGlo Substrate diluted in Opti-MEM was added. NanoLuc enzyme activity was read out within 10 min using a BMG Clariostar plate reader.
# (§3) Nanoluciferase enzyme activity of PLK1- or PLK4-Nanoluc fusion protein was analysed using GraphPad Prism. Data were normalised as follows: (treatment A RLU value at X°C temp/treatment A RLU value at 42°C temp) x 100. Using the Boltzmann sigmoidal equation, a curve was then fitted to the normalised data. From this non-linear fit, a V50 value was generated, which in this context represents the aggregation onset temperature (Tagg), at which 50% of the PLK1- or PLK4-Nanoluc fusion protein has aggregated.
# [6] = target: T1, NanoLuc-PLK4 fusion protein; test: NanoLuc thermal shift assay; format: cell-based; details: compound at 100 μM
# Procedure: as §2, §3
# [7] = tested on: HeLa cells; test: Mitotic index assay in HeLa cells; format: cell-based, human; details: for EC50: Homo sapiens, HeLa, Figure 5A, read-out: MI EC50 (cellular assay for mitotic arrest)
# Procedure: Cells were plated at 10 000/well in 96-well plates and incubated overnight. The following day compound stocks in DMSO were diluted in medium then added to cells with a maximum final DMSO concentration on cells of 0.2%. […] Cells were permeabilised with 0.1% Triton X-100 then incubated with anti-phospho-histone H3 (Ser10) antibody (Abcam ab5176). The cells were washed with PBS then incubated with AlexaFluor 488 labelled goat anti-rabbit IgG (Invitrogen A11034) in the presence of 4ug/ml Hoechst 33342 (Invitrogen H3570). Cells were washed in PBS then imaged on an Arrayscan VTi HCS instrument (Thermo Fisher) using the Target Activation V4 Bioapplication. A user-defined threshold was applied to identify mitotic cells based on the intensity of phospho-histone H3 staining.
# [8] = target: T3, PLK1-PBD(345-603), Polo-box domain of human Polo-like kinase 1 (human, UniProt P53350 345-603); test: fluorescence polarisation; competition format: TAMRA-labelled phosphopeptide 10 nM, PBD 84 nM (2.5 ng/ul), PBS pH 7.4 plus 0.03% tween; compound and PBD incubated together at 22 C for 1 hour before the peptide was added; same procedure for PLK2 PBD with its own peptide; details: both partners purified
# T3 construct: Polo-like kinase 1 (PLK1), human, Polo-box domain, residues 345-603; also called PLK1 PBD (aa345-603); PBDaa345-603; source: E. coli C41, purified (GST-Sepharose column, cleaved on column with PreScission protease, gel chromatography)
# T3 sequence (P53350 345-603): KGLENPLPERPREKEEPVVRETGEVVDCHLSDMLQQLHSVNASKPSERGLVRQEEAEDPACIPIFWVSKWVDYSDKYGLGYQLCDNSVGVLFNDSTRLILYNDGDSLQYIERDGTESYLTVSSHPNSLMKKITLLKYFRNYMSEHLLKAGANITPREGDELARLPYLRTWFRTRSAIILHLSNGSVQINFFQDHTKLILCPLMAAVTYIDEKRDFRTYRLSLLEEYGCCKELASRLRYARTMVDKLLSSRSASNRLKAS
molecule,measurement,setting,value
"CC[C@@H]1C(=O)N(C)c2cnc(Nc3ccc(C(=O)NC4CCN(C)CC4)cc3OC)nc2N1C1CCCC1 [BI2536, reference compound]",GI50,[1],30.9 nM
same,acquisition of drug resistance,[2],readily acquire resistance
same,GI50,[3],8.25 nM
COc1cc2c(Oc3ccc(NC(=O)C4(C(=O)Nc5ccc(F)cc5)CC4)cc3F)ccnc2cc1OCCCN1CCOCC1 [Foretinib],EC50,[4]; Homo sapiens,2600 ± 1040 nM
Cc1cc(Cl)ccc1-n1c(CCC(=O)N(C)C)ccc1-c1ccc(Br)cc1 [PB114],thermal stability of NanoLuc-PLK1,[5],less active
same,thermal stability of NanoLuc-PLK4,[6],less active
same,"EC50, mitotic index assay","[7]; HeLa cells treated for 16 hr, Figure 5B",inactive
O=C1NC(=O)C(c2cn3c4c(cccc24)CCC3)C1c1c[nH]c2ccccc12 (centres unmarked) [Tivatinib],EC50,[4],1200 ± 1030 nM
CN(C)CCNC(=O)c1cccc(-c2ccc(-c3ccc(Br)cc3)n2-c2ccccc2C(F)(F)F)c1 [compound 4],EC50,[7],580 nM
CN(C)CCNC(=O)c1ccc(-c2ccc(-c3ccc(Br)cc3)n2-c2ccccc2C(F)(F)F)cc1 [compound 5],EC50,[7],360 nM
"MAGPMQSTPLMGAKK (not fully specified; 5-TAMRA on the N-terminus; phosphothreonine (pThreonine) after MAGPMQS, residue 8 of the letters; C-terminal acid, also called TAMRA-labeled substrate peptide) [TAMRA-labelled consensus PLK1 PBD binding phosphopeptide, 5-TAMRA-MAGPMQS(pThreonine)PLMGAKK-acid]",binding result,[8],binds
